Data set [1] has as its system oral care and wound care pathogens. Conditions: background statement, organism not given; cited from earlier work.
The subject of the next data set is mice. Conditions: cited from earlier work.
The test system of data set [2] is aquatic and terrestrial organisms. The following applies: cited from earlier work.
In data set [3] the test system is common oral care and wound care pathogens. As to the kind of experiment: In vitro broad spectrum comparison against common oral care and wound care pathogens, silver as positive control. Type of data set: cell-based. The following applies: for broad spectrum antimicrobial activity compared with silver: in vitro, common oral care and wound care pathogens. The protocol:
The MIC of the antimicrobials was from literature review as well as in vitro studies in our lab with the five major oral care and five major wound care pathogens. In the literature typically only one bacteria was tested, thus, it was difficult to ascertain whether the target was a broad spectrum antimicrobial. Oral care pathogens tested include: Fusobacterium nucleatum ss vincentii, Porphyromonas gingivalis, Prevotella intermedia, Aggregatibacter actinomycetemcomitans and Streptococcus mutans. Wound care pathogens included: Pseudomonas aeruginosa, Streptococcus pyogenes, Staphylococcus aureus, Enterococcus faecalis, and Proteus mirabilis. For the JMP® SAS analysis the antimicrobial scoring was based on the MIC in μg/ml using the following point scale: 5) 1-10 μg/ml, 4) 11-25 μg/ml, 3) 26-50 μg/ml, 2) 51-100 μg/ml, 1) >101, and ND for not determined.
In order to directly compare the top potential Ecofriendly antimicrobial candidates from the JMP SAS multivariate analysis described above, we examined how some of these compounds (aloesin, zinc pyrithione, cinnamon, lemongrass, manuka honey, peppermint, jojoba oil) performed against common oral care and wound care pathogens, using silver as a positive control. […] Zinc pyrithione is commonly used as an antibacterial and antifungal, is safe for human use, and is a common ingredient in dandruff shampoo.

For data set [4], the system named is aquatic and terrestrial organisms. As to the kind of experiment: Eco-friendliness from ECOTOX database records. Conditions: point scale 5 to 1 from number of ECOTOX references. From the text: Eco-friendliness ratings were based on the number of references from the ECOTOX database. The scoring used the following point scale: 5) no toxicity to aquatic and terrestrial organisms, 4) 1-10 result records, 3) 11-25, 2) 26-50, 1) >51, and ND for not determined. Commonly used compounds such as Triclosan and silver were given an unacceptable Ecofriendly score of 1.

The mark [5] stands for this setting: US EPA ecotoxicology database, aquatic environment.

Read-outs that look alike come from different tables or passages of the source.

Results on four compounds are retold here after US11547651B2, “Ecofriendly biofilm-disrupting antimicrobial formulations, their development, and their uses” (Alira Health Boston LLC, priority 2017, dated 2023).

As to `Oc1cc(Cl)ccc1Oc1ccc(Cl)cc1Cl` [Triclosan, 5-Chloro-2-(2,4-dichlorophenoxy)phenol], the “microbial inhibitory concentration (MIC)” value in data set [1] was 125 µg/mL. In the data set on mice, the LD50 is recorded as 1.5 mg/day. In addition, in data set [2] (setting [5]), the “number of records/references in the ECOTOX database” value (from here on “number of records/references”) is on record as 513.
With `CC(=O)Cc1cc(=O)c2c(C)cc(O)c([C@@H]3O[C@H](CO)[C@@H](O)[C@H](O)[C@H]3O)c2o1` [aloesin], the “broad spectrum antimicrobial activity compared with silver” value in data set [3] is recorded as “inferior to silver”.
Take silver: the “log reduction of most bacterial pathogens” value in data set [3] (planktonic bacterial and bacterial biofilms) amounted to 5 fold log reduction. Moreover, the “microbial inhibitory concentration (MIC)” value in data set [1] was 7.5 µg/mL. Further, the “number of records/references” value in data set [2] was 5,266.
zinc pyrithione: the “Ecofriendly (ecotoxicology) score” value in data set [4] is 1 (>51). In data set [3], the “broad spectrum antimicrobial activity compared with silver” value is on record as “better than silver”. For the same compound, the “number of records/references” value in data set [2] (setting [5]) is reported as 151.
